Assay results: paper PMC6270994, “The Hydractinia echinata Test-System. III: Structure-Toxicity Relationship Study of Some Azo-, Azo-Anilide, and Diazonium Salt Derivatives” (Molecules, 2014)

tested on: Hydractinia echinata; assay: Hydractinia echinata test system (HeTS): reduction of Cs+-induced metamorphosis of larvae; type: in vivo; conditions: Hydractinia echinata; MRC50 in mol/L = concentration for 50% decrease of metamorphosis vs control; larvae exposed 3 h with Cs+, read after 24 h; read-out: M: experimental Mlog(1/MRC50) (converted)
Method: The average (C) concentrations of these values were calculated too. The MRC50 value calculations (Chicu et al.) result from the graphical representation of the metamorphosis variation, M (%), (Y axis) function of the xenobiotic’s concentration (mol/L) (X axis), where the metamorphosis decreases with the rise of the xenobiotic’s concentration. Thus, the MRC50 value represents the xenobiotic’s concentration (mol/L) necessary for a 50% decrease of metamorphosis, with respect to control.
For each concentration of substance experiments were performed in triplicate and were repeated at least twice.
Colonies of H. echinata (Biologische Anstalt, Helgoland, Germany) were used to obtain eggs and larvae. The culture medium was artificial seawater (980 mosmol, pH 8.2, 18 °C). In laboratory an artificial metamorphosis can be synchronically started by the introduction of Cs^+ ions or by using seawater without Mg^2+ ions; it then lasts only 24 h. Under the action of external stimulus of Cs^+ ions or Cs^+ ions together with the tested compounds, one part of larvae further lives as such and another one is metamorphosized to the polyp form. The evaluation of the influence of the tested substance is very clear this way, the proposed method being based on this aspect.
H. echinata larvae were exposed to seawater containing Cs^+ and simultaneously one of the test substances for 3 h. The percentage of animals that underwent metamorphosis (development into polyps) was determined after 24 h. […] We chose a concentration of inducers which caused about […] to three quarters of the larvae to metamorphose in order to have conditions which are highly sensitive against an inhibitory influence. […] This concentration was termed MRC50 (for Metamorphosis Reduction Concentration) and is similar to the effective EC50 concentration that gives half maximal effective response.

Row | SMILES | EC50 [µM]
1 | Cc1cc(-c2ccc(/N=N/c3ccc4c(S(=O)(=O)O)cc(S(=O)(=O)O)c(N)c4c3O)c(C)c2)ccc1/N=N/c1ccc2c(S(=O)(=O)O)cc(S(=O)(=O)O)c(N)c2c1O [Compound 89, Direct Blue 53 (Evans Blue)] | 7.41
2 | Cc1cc(-c2ccc(/N=N/c3c(S(=O)(=O)O)cc4cc(S(=O)(=O)O)cc(N)c4c3O)c(C)c2)ccc1/N=N/c1c(S(=O)(=O)O)cc2cc(S(=O)(=O)O)cc(N)c2c1O [Compound 90, Trypanblue (Direct Blue 14)] | 81.3
3 | COc1cc(-c2ccc(-n3nc(-c4ccccc4)n[n+]3-c3ccccc3)c(OC)c2)ccc1-n1nc(-c2ccccc2)n[n+]1-c1ccccc1 [Compound 95, Tetrazolium Blue Chloride] | 91.2
4 | O=S(=O)(O)c1cc(/N=N/c2ccc(O)cc2O)ccc1/C=C/c1ccc(/N=N/c2ccc(O)cc2O)cc1S(=O)(=O)O [Compound 97, 5-[(E)-2-(2,4-Dihydroxyphenyl)-diazen-1-yl]-2-[(E)-2-{4-[(E)-2-(2,4-dihydroxyphenyl)-diazen-1-yl]-2-sulfophenyl}ethenyl]-benzene-1-sulfonic acid] | 186
5 | O=C(O)c1cc(N=Nc2ccc(C=Cc3ccc(N=Nc4ccc(O)cc4C(=O)O)cc3S(=O)(=O)O)c(S(=O)(=O)O)c2)ccc1O [Compound 98, 2-{2-[4-(2-{4-[2-(3-Carboxy-4-hydroxy-phenyl)diazen-1-yl]-2-sulfophenyl}ethenyl)-3-sulfophenyl]diazen-1-yl}-5-hydroxybenzoic acid] | 407
6 | O=S(=O)(O)c1cc(N=Nc2c(O)ccc3ccccc23)ccc1C=Cc1ccc(N=Nc2c(O)ccc3ccccc23)cc1S(=O)(=O)O [Compound 100, 5-[2-(2-Hydroxy-naphthalen-1-yl)diazen-1-yl]-2-(2-{4-[2-(2-hydroxynaphthalen-1-yl)diazen-1-yl]-2-sulfophenyl}ethenyl)-benzene-1-sulfonic acid] | 28.2
7 | O=C(O)c1cc2ccccc2c(N=Nc2ccc(C=Cc3ccc(N=Nc4c(O)c(C(=O)O)cc5ccccc45)cc3S(=O)(=O)O)c(S(=O)(=O)O)c2)c1O [Compound 101, 4-{2-[4-(2-{4-[2-(3-Carboxy-2-hydroxy-naphthalen-1-yl)diazen-1-yl]-2-sulfophenyl}-ethenyl)-3-sulfo-phenyl]diazen-1-yl}-3-hydroxynaphthalene-2-carboxylic acid] | 135
8 | Nc1c(N=Nc2ccc(C=Cc3ccc(N=Nc4cc(S(=O)(=O)O)c5ccccc5c4N)cc3S(=O)(=O)O)c(S(=O)(=O)O)c2)cc(S(=O)(=O)O)c2ccccc12 [Compound 102, 4-Amino-3-{2-[4-(2-{4-[2-(1-amino-4-sulfonaphthalen-2-yl)diazen-1-yl]-2-sulfophenyl}ethenyl)-3-sulfophenyl]diazen-1-yl}naphthalene-1-sulfonic acid] | 182
9 | O=C(Nc1ccc(/N=N/c2ccc(C(=O)O)c(O)c2)cc1)c1ccc(/N=N/c2ccccc2O)cc1 [Compound 104, 2-Hydroxy-4-[(E)-2-(4-{4-[(E)-2-(2-hydroxy-phenyl)diazen-1-yl]-benzamido}phenyl)-diazen-1-yl]benzoic acid] | 30.2
10 | O=C(Nc1ccc(/N=N/c2ccc(O)c(C(=O)O)c2)cc1)c1ccc(/N=N/c2cc(/N=N/c3cc(S(=O)(=O)O)ccc3O)c(O)cc2O)cc1 [Compound 105, 5-[(E)-2-(4-{4-[(E)-2-{2,4-dihydroxy-5-[(E)-2-(2-hydroxy-5-sulfo-phenyl)diazen-1-yl]-phenyl}diazen-1-yl]-benzamido}phenyl)-diazen-1-yl]-2-hydroxybenzoic acid] | 229
11 | O=C(Nc1ccc(N=Nc2ccc(O)c(C(=O)O)c2)cc1)c1ccc(N=Nc2ccc(O)c(C(=O)O)c2)cc1 [Compound 106, 5-[2-(4-{4-[2-(3-Carboxy-4-hydroxyphenyl)diazen-1-yl]benzamido}-phenyl)diazen-1-yl]-2-hydroxybenzoic acid] | 363
12 | Nc1ccc2c(O)c(N=Nc3ccc(NC(=O)c4ccc(N=Nc5ccc(O)c(C(=O)O)c5)cc4)cc3)c(S(=O)(=O)O)cc2c1 [Compound 107, 5-{2-[4-({4-[2-(6-Amino-1-hydroxy-3-sulfonaphthalen-2-yl)diazen-1-yl]-phenyl}carbamoyl)-phenyl]diazen-1-yl}-2-hydroxybenzoic acid] | 219
13 | Nc1ccc2cc(S(=O)(=O)O)c(N=Nc3ccc(NC(=O)c4ccc(N=Nc5ccc(O)c(C(=O)O)c5)cc4)cc3)c(O)c2c1 [Compound 108, 5-{2-[4-({4-[2-(7-Amino-1-hydroxy-3-sulfonaphthalen-2-yl)diazen-1-yl]-phenyl}carbamoyl)-phenyl]diazen-1-yl}-2-hydroxybenzoic acid] | 214
14 | Nc1c(N=Nc2ccc(NC(=O)c3ccc(N=Nc4cc(S(=O)(=O)O)c5ccccc5c4N)cc3)cc2)cc(S(=O)(=O)O)c2ccccc12 [Compound 109, 4-Amino-3-[2-(4-{4-[2-(1-amino-4-sulfonaphthalen-2-yl)-diazen-1-yl]-benzamido}phenyl)-diazen-1-yl]-naphthalene-1-sulfonic acid] | 166
15 | O=C(Nc1ccc(N=Nc2c(O)c(S(=O)(=O)O)cc3cc(S(=O)(=O)O)ccc23)cc1)c1ccc(N=Nc2c(O)c(S(=O)(=O)O)cc3cc(S(=O)(=O)O)ccc23)cc1 [Compound 110, 3-Hydroxy-4-[2-(4-{4-[2-(2-hydroxy-3,6-disulfonaphthalen-1-yl)diazen-1-yl]-benzamido}phenyl)-diazen-1-yl]-naphthalene-2,7-disulfonic acid] | 195
16 | Nc1ccc2cc(S(=O)(=O)O)c(N=Nc3ccc(NC(=O)c4ccc(N=Nc5c(S(=O)(=O)O)cc6cc(S(=O)(=O)O)cc(N)c6c5O)cc4)cc3)c(O)c2c1 [Compound 111, 5-Amino-3-{2-[4-({4-[2-(7-amino-1-hydroxy-3-sulfonaphthalen-2-yl)diazen-1-yl]phenyl}-carbamoyl)phenyl]diazen-1-yl}-4-hydroxy-naphthalene-2,7-disulfonic acid] | 263
17 | Cc1[nH]n(-c2ccc(S(=O)(=O)O)cc2)c(=O)c1N=Nc1ccc(NC(=O)c2ccc(N=Nc3c(C)[nH]n(-c4ccc(S(=O)(=O)O)cc4)c3=O)cc2)cc1 [Compound 112, 4-(3-Methyl-4-{2-[4-(4-{2-[5-methyl-3-oxo-2-(4-sulfophenyl)-2,3-dihydro-1H-pyrazol-4-yl]diazen-1-yl}-benzamido)phenyl]-diazen-1-yl}-5-oxo-2,5-dihydro-1H-pyrazol-1-yl)benzene-1-sulfonic acid] | 95.5
18 | Nc1c(N=Nc2ccc([N+](=O)[O-])cc2)c(S(=O)(=O)O)cc2cc(S(=O)(=O)O)c(N=Nc3ccc(NC(=O)c4ccc(N=Nc5ccc(O)c(C(=O)O)c5)cc4)cc3)c(O)c12 [Compound 113, 5-[2-(4-{[4-(2-{8-Amino-1-hydroxy-7-[2-(4-nitrophenyl)diazen-1-yl]-3,6-disulfonaphthalen-2-yl}diazen-1-yl)-phenyl]carbamoyl}-phenyl)diazen-1-yl]-2-hydroxybenzoic acid] | 112
19 | Nc1c(N=Nc2ccc([N+](=O)[O-])cc2C(=O)O)c(S(=O)(=O)O)cc2cc(S(=O)(=O)O)c(N=Nc3ccc(NC(=O)c4ccc(N=Nc5ccc(O)c(C(=O)O)c5)cc4)cc3)c(O)c12 [Compound 114, 5-[2-(4-{[4-(2-{8-Amino-7-[2-(2-carboxy-4-nitrophenyl)diazen-1-yl]-1-hydroxy-3,6-disulfonaphthalen-2-yl}diazen-1-yl)phenyl]-carbamoyl}phenyl)-diazen-1-yl]-2-hydroxybenzoic acid] | 129

same assay, conditions: Hydractinia echinata; parent dye, Table 2; read-out: F(1+2+...)e experimental toxicity log(1/MRC50) (converted)

Row | SMILES | EC50 [µM]
20 | O=S(=O)(O)c1cc(/N=N/c2ccc(O)cc2O)ccc1/C=C/c1ccc(/N=N/c2ccc(O)cc2O)cc1S(=O)(=O)O [Compound 97, 5-[(E)-2-(2,4-Dihydroxyphenyl)-diazen-1-yl]-2-[(E)-2-{4-[(E)-2-(2,4-dihydroxyphenyl)-diazen-1-yl]-2-sulfophenyl}ethenyl]-benzene-1-sulfonic acid] | 186
21 | O=C(Nc1ccc(/N=N/c2ccc(C(=O)O)c(O)c2)cc1)c1ccc(/N=N/c2ccccc2O)cc1 [Compound 104, 2-Hydroxy-4-[(E)-2-(4-{4-[(E)-2-(2-hydroxy-phenyl)diazen-1-yl]-benzamido}phenyl)-diazen-1-yl]benzoic acid] | 30.2
22 | O=C(Nc1ccc(N=Nc2ccc(O)c(C(=O)O)c2)cc1)c1ccc(N=Nc2ccc(O)c(C(=O)O)c2)cc1 [Compound 106, 5-[2-(4-{4-[2-(3-Carboxy-4-hydroxyphenyl)diazen-1-yl]benzamido}-phenyl)diazen-1-yl]-2-hydroxybenzoic acid] | 363

same assay, conditions: MRC50 in mol/L = concentration for 50% decrease of metamorphosis vs control; larvae exposed 3 h with Cs+, read after 24 h

Row | SMILES | M: experimental Mlog(1/MRC50)
23 | COc1cc(-c2ccc(N=Nc3c(S(=O)(=O)[O-])cc4cc(S(=O)(=O)[O-])cc(N)c4c3O)c(OC)c2)ccc1N=Nc1c(S(=O)(=O)[O-])cc2cc(S(=O)(=O)[O-])cc(N)c2c1O.[Na+].[Na+].[Na+].[Na+] [Compound 91, Direct Blue 15 (Aizen Direct Sky Blue 5B)] | 3.69
24 | COc1cc(-c2ccc(N=Nc3ccc4c(S(=O)(=O)[O-])cc(S(=O)(=O)[O-])c(N)c4c3O)c(OC)c2)ccc1N=Nc1ccc2c(S(=O)(=O)[O-])cc(S(=O)(=O)[O-])c(N)c2c1O.[Na+].[Na+].[Na+].[Na+] [Compound 92, Direct Blue 1] | 3.79
25 | COc1cc(-c2ccc([N+]#N)c(OC)c2)ccc1[N+]#N [Compound 94, Fast Blue B] | 4.30
26 | O=S(=O)([O-])c1cc(N=Nc2ccc(O)cc2)ccc1/C=C/c1ccc(N=Nc2ccc(O)cc2)cc1S(=O)(=O)[O-].[Na+].[Na+] [Compound 96, Brilliant Yellow] | 3.84
27 | O=S(=O)([O-])c1cc(Nc2nc(Nc3ccccc3)nc(N(CCO)CCO)n2)ccc1/C=C/c1ccc(Nc2nc(Nc3ccccc3)nc(N(CCO)CCO)n2)cc1S(=O)(=O)[O-].[Na+].[Na+] [Compound 103, Fluorescent Brightener 28] | 3.81

same assay, conditions: parent dye, Table 2

Row | SMILES | F(1+2+...)e experimental toxicity log(1/MRC50)
28 | O=S(=O)([O-])c1cc(N=Nc2ccc(O)cc2)ccc1/C=C/c1ccc(N=Nc2ccc(O)cc2)cc1S(=O)(=O)[O-].[Na+].[Na+] [Compound 96, Brilliant Yellow] | 3.84
